Source: US20020198254A1, “Polyamide analogs” (priority 2000, published 2002)
Converted amounts (≈) assume the structure as drawn. Like-named read-outs stand apart in the source and are kept apart here.

Key:
Assay type in all cases: cell-based
Staphylococcus aureus = assay: MIC assay, S. aureus; details: CAMHB, 16 h
Method: (§1) These assays are adapted from NCCLS protocols M7-A4 and M27-A (NCCLS vol 17:9 and vol 17:2) as modified by Sandven, S. Clin. Micro. (1999) 37:12, p.3856-3859. MIC values for Aspergillus fumigatus were determined using NCCLS protocol M38-P.
(§2) All compounds were dissolved in 100% DMSO to a stock concentration of 10 mM and use fresh or stored at −80° C. Stock compounds were kept frozen until needed and used freshly with no more then one freeze-thaw cycle. When used for test purposes, compounds were diluted in the appropriate media depending on the organism being tested.
(§3) For yeast and aspergillus species, seven 1:2 serial dilutions of compound in appropriate media buffered with MOPS at pH 7.0 were prepared such that the final starting test compound concentrations were 50.0 uM for yeast and 50 uM aspergillus species. For bacteria, dilutions were made in growth media used for the particular bacteria being tested.
(§4) Inoculums are made in the same manner as yeast except all dilutions are made in normal saline, with a final dilution of 1:200 and an inoculum of 10 μL. VRE are vancomycin resistant enterococci, BM4147 and UCD-3 represent two different sources of VRE. MRSA are […] resistant Staphylococcus Aureus.

[1] = test system: VRE-BM4147 (vancomycin resistant enterococci); assay: MIC assay, VRE strain BM4147; details: 25 μg/mL Vancomycin - 24 h; for MIC: Enterococcus, VRE, read-out: MIC Assay VRE Strains: BM4147 van25
Method: as §1, §2, §3, §4

[2] = test system: VRE-UCD3 (vancomycin resistant enterococci); assay: MIC assay, VRE strain UCD-3; details: 25 μg/mL Vancomycin - 24 h; for MIC: Enterococcus, VRE, read-out: MIC Assay VRE Strains: UCD-3 van25
Method: as §1, §2, §3, §4

Pseudomonas aeruginosa = assay: MIC assay, P. aeruginosa; details: CAMHB, 16 h
Method: as §1, §2, §3, §4

Bacillus cereus = assay: MIC assay, B. cereus; details: CAMHB, 16 h; for MIC: Bacillus cereus, read-out: MIC Assay Other Strains: B. cereus
Method: as §1, §2, §3, §4

Candida albicans = assay: MIC assay, yeast C. albicans; details: RPMI, 48 h, Alamar Blue; for MIC: Candida albicans
Aspergillus fumigatus = assay: MIC assay, filamentous fungi A. fumigatus; details: 48 h at 35C, no visible growth; for MIC: Aspergillus fumigatus
WST-CEM T-cell line = assay: Toxicity screen on WST-CEM T-cell line
Method: Toxicity screen was done on a WST-CEM T-cell line and the minimum percent verses a no drug control was measured.

[3] = test system: MRSA (methylacillin resistant Staphylococcus Aureus); assay: MIC assay, MRSA; details: for MIC: Staphylococcus aureus, MRSA
Method: as §1, §2, §3, §4

E coli = assay: MIC assay, E coli
Method: as §1, §2, §3, §4

[4] = WST-CEM T-cell line, ND = no drug control

1,5-bis-{4-[(NH2(CH2)2CONH)-1-methyl-1H-pyrrol-2-yl-carbonylamino]-benzimidazole [Compound 77]
MIC Assay Other Strains: S. aureus (Staphylococcus aureus): 45.5 µM
MIC Assay VRE Strains: BM4147 van25 [1]: >45.5 µM
MIC Assay VRE Strains: UCD-3 van25 [2]: >45.5 µM
MIC Assay Other Strains: P. aeruginosa (Pseudomonas aeruginosa): >45.5 µM
MIC Assay Other Strains: B. cereus (Bacillus cereus): 22.7 µM
MIC Assay C. Albicans (Candida albicans): >44.4 µM

1,5-bis-{4-[(NH2(CH2)3CONH)-1-methyl-1H-pyrrol-2-yl-carbonylamino]-benzimidazole [Compound 78]
MIC Assay Other Strains: S. aureus (Staphylococcus aureus): 45.5 µM
MIC Assay VRE Strains: BM4147 van25 [1]: >45.5 µM
MIC Assay VRE Strains: UCD-3 van25 [2]: >45.5 µM
MIC Assay Other Strains: P. aeruginosa (Pseudomonas aeruginosa): >45.5 µM
MIC Assay Other Strains: B. cereus (Bacillus cereus): 22.7 µM

1,5-bis-{4-[(NH2CH2CONH)-1-methyl-1H-pyrrol-2-yl-carbonylamino]-benzimidazole [Compound 76]
MIC Assay Other Strains: S. aureus (Staphylococcus aureus): >45.5 µM
MIC Assay VRE Strains: BM4147 van25 [1]: >45.5 µM
MIC Assay VRE Strains: UCD-3 van25 [2]: >45.5 µM
MIC Assay Other Strains: P. aeruginosa (Pseudomonas aeruginosa): >45.5 µM
MIC Assay Other Strains: B. cereus (Bacillus cereus): >45.5 µM
MIC Assay C. Albicans (Candida albicans): >44.4 µM

Cn1cc(NC(=O)CNC(=N)N)cc1C(=O)Nc1ccc2[nH]c(NC(=O)c3cc(NC(=O)CNC(=N)N)cn3C)nc2c1 [Compound 79]
MIC Assay Other Strains: S. aureus (Staphylococcus aureus): >45.5 µM
MIC Assay VRE Strains: BM4147 van25 [1]: 45.5 µM
MIC Assay VRE Strains: UCD-3 van25 [2]: 11.4 µM
MIC Assay Other Strains: P. aeruginosa (Pseudomonas aeruginosa): >45.5 µM
MIC Assay Other Strains: B. cereus (Bacillus cereus): 11.4 µM (≈ 6.73 µg/mL)

Cn1cc(NC(=O)CCNC(=N)N)cc1C(=O)Nc1ccc2[nH]c(NC(=O)c3cc(NC(=O)CCNC(=N)N)cn3C)nc2c1 [Compound 80]
MIC Assay Other Strains: S. aureus (Staphylococcus aureus): >45.5 µM
MIC Assay VRE Strains: BM4147 van25 [1]: >45.5 µM
MIC Assay VRE Strains: UCD-3 van25 [2]: >45.5 µM
MIC Assay Other Strains: P. aeruginosa (Pseudomonas aeruginosa): >45.5 µM
MIC Assay Other Strains: B. cereus (Bacillus cereus): 5.7 µM (≈ 3.53 µg/mL)
MIC Assay C. Albicans (Candida albicans): >44.4 µM

Cn1cc(NC(=O)CCCNC(=N)N)cc1C(=O)Nc1ccc2[nH]c(NC(=O)c3cc(NC(=O)CCCNC(=N)N)cn3C)nc2c1 [Compound 81]
MIC Assay Other Strains: S. aureus (Staphylococcus aureus): 45.5 µM (≈ 29.4 µg/mL)
MIC Assay VRE Strains: BM4147 van25 [1]: >45.5 µM
MIC Assay VRE Strains: UCD-3 van25 [2]: >45.5 µM
MIC Assay Other Strains: P. aeruginosa (Pseudomonas aeruginosa): >45.5 µM
MIC Assay Other Strains: B. cereus (Bacillus cereus): 5.7 µM (≈ 3.69 µg/mL)
MIC Assay C. Albicans (Candida albicans): 22.2 µM (≈ 14.4 µg/mL)

NCC(=O)Nc1cc(C(=O)NCCNC(=O)c2cc(NC(=O)CN)cn2CC2CC2)n(CC2CC2)c1 [Compound 169, Bis-1,2-[4-(2-amino-acetylamino)-1-cyclopropylmethyl-1H-pyrrol-2-yl-carbonylamino]-ethane]
MIC (Aspergillus fumigatus): > 50 µM
CEM: toxicity screen, minimum percent verses a no drug control (WST-CEM T-cell line; [4]): 100% ND
MIC [1]: > 45.5 µM
MIC [2]: > 45.5 µM
MIC [3]: > 45.5 µM
MIC (Bacillus cereus): > 45.5 µM
MIC (E coli): 45.5 µM (≈ 22.7 µg/mL)
MIC (Candida albicans): > 44.4 µM

CC(C)C(N)C(=O)Nc1cc(C(=O)NCCNC(=O)c2cc(NC(=O)C(N)C(C)C)cn2CC2CC2)n(CC2CC2)c1 (stereo not drawn) [Compound 170, Bis-1,2-[4-(2-amino-3-methyl-butyrylamino)-1-cyclopropylmethyl-1H-pyrrol-2-yl-carbonylamino]-ethane]
MIC Assay A fumigatus (Aspergillus fumigatus): >50 µM
CEM: toxicity screen, minimum percent verses a no drug control (WST-CEM T-cell line): 90.0% ND
MIC Assay VRE Strains: BM4147 van25 [1]: >45.5 µM
MIC Assay VRE Strains: UCD-3 van25 [2]: >45.5 µM
MIC Assay MRSA [3]: >45.5 µM
MIC Assay E coli (E coli): >45.5 µM
MIC Assay C. Albicans (Candida albicans): >44.4 µM

O=C(NC1CCC(NC(=O)c2cc(NC(=O)C3CCCN3)cn2CC2CC2)CC1)c1cc(NC(=O)C2CCCN2)cn1CC1CC1 (stereo not drawn) [Compound 171, Bis-trans-1,4-[4-(pyrrolidine-2-carbonyl-amino)-1-cyclopropylmethyl-1H-pyrrol-2-yl-carbonylamino]cyclohexane]
MIC (Aspergillus fumigatus): > 50 µM
CEM: toxicity screen, minimum percent verses a no drug control (WST-CEM T-cell line; [4]): 91.1% ND
MIC [1]: > 45.5 µM
MIC [2]: > 45.5 µM
MIC [3]: > 45.5 µM
MIC (E coli): > 45.5 µM
MIC (Candida albicans): > 44.4 µM

NCCCC(N)C(=O)N1CCCC1C(=O)Nc1cc(C(=O)NC2CCC(NC(=O)c3cc(NC(=O)C4CCCN4C(=O)C(N)CCCN)cn3CC3CC3)CC2)n(CC2CC2)c1 (stereo not drawn) [Compound 172, Bis-trans-1,4-{[4-(2,5-diamino-pentanoyl)pyrrolidine-2-carbonyl-amino]-1-cyclopropylmethyl-1H-pyrrol-2-yl-carbonylamino}cyclohexane]
MIC Assay A fumigatus (Aspergillus fumigatus): >50 µM
CEM: toxicity screen, minimum percent verses a no drug control (WST-CEM T-cell line): 25.5% ND
MIC Assay VRE Strains: BM4147 van25 [1]: >45.5 µM
MIC Assay VRE Strains: UCD-3 van25 [2]: >45.5 µM
MIC Assay MRSA [3]: >45.5 µM
MIC Assay E coli (E coli): >45.5 µM
MIC Assay C. Albicans (Candida albicans): >44.4 µM

NC(Cc1c[nH]cn1)C(=O)Nc1cc(C(=O)NC2CCC(NC(=O)c3cc(NC(=O)C(N)Cc4c[nH]cn4)cn3CC3CC3)CC2)n(CC2CC2)c1 (stereo not drawn) [Compound 173, Bis-trans-1,4-{4-[2-amino-3-(1H-imidazol-4-yl)propyonylamino]-1-cyclopropylmethyl-1H-pyrrol-2-yl-carbonylamino]cyclohexane]
MIC Assay A fumigatus (Aspergillus fumigatus): >50 µM
CEM: toxicity screen, minimum percent verses a no drug control (WST-CEM T-cell line): 87.2% ND
MIC Assay VRE Strains: BM4147 van25 [1]: >45.5 µM
MIC Assay VRE Strains: UCD-3 van25 [2]: >45.5 µM
MIC Assay MRSA [3]: >45.5 µM
MIC Assay E coli (E coli): >45.5 µM
MIC Assay C. Albicans (Candida albicans): >44.4 µM

N=C(N)NCC(=O)Nc1cc(C(=O)NCCNC(=O)c2cc(NC(=O)CNC(=N)N)cn2CC2CC2)n(CC2CC2)c1 [Compound 174]
MIC (Aspergillus fumigatus): > 50 µM
CEM: toxicity screen, minimum percent verses a no drug control (WST-CEM T-cell line; [4]): 92.9% ND
MIC [1]: > 45.5 µM
MIC [2]: > 45.5 µM
MIC [3]: > 45.5 µM
MIC (E coli): > 45.5 µM
MIC (Candida albicans): > 44.4 µM

CC(C)CCn1cc(NC(=O)CN)cc1C(=O)Nc1ccc(NC(=O)c2cc(NC(=O)CN)cn2CCC(C)C)cc1 [Compound 188a]
MIC Assay A fumigatus (Aspergillus fumigatus): >50 µM
CEM: toxicity screen, minimum percent verses a no drug control (WST-CEM T-cell line; [4]): 6.9% ND
MIC Assay VRE Strains: BM4147 van25 [1]: 11.4 µM
MIC Assay VRE Strains: UCD-3 van25 [2]: 11.4 µM
MIC Assay MRSA [3]: 11.4 µM (≈ 6.6 µg/mL)
MIC Assay Other Strains: B. cereus (Bacillus cereus): 22.7 µM (≈ 13.1 µg/mL)
MIC Assay E coli (E coli): 22.7 µM (≈ 13.1 µg/mL)
MIC Assay C. Albicans (Candida albicans): >44.4 µM

CC(C)CCn1cc(NC(=O)CN)cc1C(=O)Nc1ccc2ccc(NC(=O)c3cc(NC(=O)CN)cn3CCC(C)C)cc2c1 [Compound 188b]
MIC Assay A fumigatus (Aspergillus fumigatus): >50 µM
CEM: toxicity screen, minimum percent verses a no drug control (WST-CEM T-cell line; [4]): 9.2% ND
MIC Assay Other Strains: B. cereus (Bacillus cereus): 22.7 µM (≈ 14.3 µg/mL)
MIC Assay E coli (E coli): 22.7 µM (≈ 14.3 µg/mL)
MIC Assay C. Albicans (Candida albicans): 22.2 µM (≈ 14 µg/mL)

CC(C)CCn1cc(NC(=O)CNC(=N)N)cc1C(=O)Nc1ccc(NC(=O)c2cc(NC(=O)CNC(=N)N)cn2CCC(C)C)cc1 [Compound 189a]
MIC (Aspergillus fumigatus): 12.5 µM (≈ 8.28 µg/mL)
CEM: toxicity screen, minimum percent verses a no drug control (WST-CEM T-cell line; [4]): 7.7% ND
MIC [1]: 11.4 µM
MIC [2]: 11.4 µM
MIC (Bacillus cereus): 2.8 µM (≈ 1.86 µg/mL)
MIC (E coli): 11.4 µM (≈ 7.56 µg/mL)
MIC (Candida albicans): 22.2 µM (≈ 14.7 µg/mL)

CC(C)CCn1cc(NC(=O)CNC(=N)N)cc1C(=O)Nc1ccc2ccc(NC(=O)c3cc(NC(=O)CNC(=N)N)cn3CCC(C)C)cc2c1 [Compound 189b]
MIC (Aspergillus fumigatus): 3.1 µM (≈ 2.21 µg/mL)
CEM: toxicity screen, minimum percent verses a no drug control (WST-CEM T-cell line; [4]): 10.2% ND
MIC [2]: 5.7 µM
MIC (Bacillus cereus): 2.8 µM (≈ 2 µg/mL)
MIC (E coli): 45.5 µM (≈ 32.4 µg/mL)

CC/N=C(/NCCN(C)C)Nc1cc(C(=O)Nc2ccc(NC(=O)c3cc(N/C(=N/CC)NCCN(C)C)cn3CCC(C)C)cc2)n(CCC(C)C)c1 [Compound 191]
MIC (Aspergillus fumigatus): 12.5 µM (≈ 9.34 µg/mL)
CEM: toxicity screen, minimum percent verses a no drug control (WST-CEM T-cell line; [4]): 3.7% ND
MIC [2]: 11.4 µM
MIC (Bacillus cereus): 5.7 µM (≈ 4.26 µg/mL)
MIC (E coli): 22.7 µM (≈ 17 µg/mL)
MIC (Candida albicans): 11.1 µM (≈ 8.29 µg/mL)
